The results in this text go back to article PMC11611271, “Rapid prediction of key residues for foldability by machine learning model enables the design of highly functional libraries with hyperstable constrained peptide scaffolds” (PLOS Computational Biology, 2024).

Where a SMILES comes first, the peptide text is derived from it. Bridges are numbered along the chain shown (N, C = ends). Where no end group is shown, it is not given here.

A word on the Kd: it is a measure of binding affinity in units of concentration. Higher therefore signals weaker binding.

One experiment concerns HtrA1. Description: phage spot ELISA on HtrA1. The class given is binding. To be noted: Fig 9A; for ELISA s/n: Spot ELISA signal/noise; for ELISA signal: Spot ELISA. From the text: To determine the performance of the libraries for ligand discovery we chose a panel of eight protein targets, which have no structural homology and a wide mass range (Fig 7C). We screened these eight targets with solution panning strategy and two additional plate panning for CD8α/β and CD28, thus ten panning campaigns in total. We consider clones showing spot phage ELISA signal > 0.3 and signal/noise ratio > 2 as positive hits. […] We also obtained the NGS data for these screening and the ranking of clones for their enrichment along the rounds of screening was analyzed and considered the top-ranking clones as potential hits. Based on their sequence diversity we selected 16 potential hits spanning five protein targets for peptide synthesis in their linear form. Seven of these are hits with positive phage ELISA signal and nine were selected based on NGS ranking without spot ELISA available. Subsequently, we conducted in vitro folding experiments on these peptides in various buffers.
(§1) The 5ji4 libraries were constructed following the Kunkel mutagenesis method and the solution panning protocol was followed as previously described. After four to five rounds of binding selection, while eluted pool was subjected to NGS analysis, individual phage clones were also picked and analyzed with phage spot ELISA. Positive clones were subjected to SANGER sequencing.
Among these five hits, A7, which is the SANGER hit, was picked for affinity maturation. Following the same strategy, one soft- and one hard-randomization library was designed targeting the 5JI4 variable regions 1 and 2, respectively. Two libraries were each panned as previously described. Both phage spot ELISA coupled with SANGER sequencing and NGS analysis were applied after affinity maturation.
For orientation: An ELISA detects its analyte on a solid surface through an enzyme-linked reagent.

Experiment [1] has as its target T1, human full-length HtrA1 (Homo sapiens, UniProt Q92743).
T1 construct: we used human full-length HtrA1 (HtrA1), which was expressed in Trichoplusia ni cells; made in house; host or cells: Trichoplusia ni cells
Put plainly: HtrA1 enzymatic assay. The class given is biochemical. How it is done:
For enzymatic assays we used human full-length HtrA1 (HtrA1), which was expressed in Trichoplusia ni cells and purified as described. Enzyme assays with the fluorescence-quenched synthetic substrate Mca-[…](Dnp)KK (H2-OPT) were carried out essentially as described. […] A 10 mM stock solution of H2-OPT in DMSO was diluted with water, prewarmed at 37°C and then added to the HCP-enzyme mixtures. The final concentrations in the reaction mixtures were: 1 nM HtrA1, 5 μM H2-OPT, 0.1% DMSO and varied concentrations of HCP. Substrate cleavage was measured at 37°C on a SPECTRAmax M5 microplate reader (Molecular Devices) and the initial rates of cleavage determined. The IC50 values were determined by fitting the data to the 4 parameter sigmoid function.

The subject of the next experiment is CD8α. Put plainly: phage spot ELISA on CD8α. The class given is binding.
Text: (§2) To determine the performance of the libraries for ligand discovery we chose a panel of eight protein targets, which have no structural homology and a wide mass range (Fig 7C). We screened these eight targets with solution panning strategy and two additional plate panning for CD8α/β and CD28, thus ten panning campaigns in total. We consider clones showing spot phage ELISA signal > 0.3 and signal/noise ratio > 2 as positive hits. At least one binding hit was discovered for nine out of the ten panning campaigns, surpassing the success rate of the best DCP scaffolds reported previously. We also obtained the NGS data for these screening and the ranking of clones for their enrichment along the rounds of screening was analyzed and considered the top-ranking clones as potential hits. Based on their sequence diversity we selected 16 potential hits spanning five protein targets for peptide synthesis in their linear form. Seven of these are hits with positive phage ELISA signal and nine were selected based on NGS ranking without spot ELISA available. Subsequently, we conducted in vitro folding experiments on these peptides in various buffers. We observed a strong propensity for spontaneous folding regardless of the buffer condition. All HCP hits tested successfully folded into three-disulfide-containing product within two days in a universal buffer system (PBS, pH 7.4, 50% DMSO) without the need for a redox pair, as shown in Fig 8A. The binding of these folded peptides to their respective target proteins was confirmed using SPR (Table 4 and S1 Data) and binding kinetics are exemplified by the high-affinity peptide 5ji4-CRD7-2 (see Fig 8B). Among seven selected ELISA-positive hits, all of them were successfully synthesized and in vitro folded with three disulfide bonds and five were proven to be validated binders by SPR (Table 4). Nine peptides selected from the NGS ranking were synthesized and folded with the expected number of disulfide bonds and five of them bound to their target with affinities in the μM range as determined by SPR (Table 4). In general, binding affinities for these SPR-validated initial hits are weak, with Kd values in the micromolar range and fast on- and off-rates. There are two exceptions with binding affinities in the nanomolar range.
as §1

For another experiment, the target named is T2, CD8α-Fc (Homo sapiens, UniProt P01732).
T2 construct: purchased R&D AVI10927
T2 sequence (P01732 22-182 limits assumed): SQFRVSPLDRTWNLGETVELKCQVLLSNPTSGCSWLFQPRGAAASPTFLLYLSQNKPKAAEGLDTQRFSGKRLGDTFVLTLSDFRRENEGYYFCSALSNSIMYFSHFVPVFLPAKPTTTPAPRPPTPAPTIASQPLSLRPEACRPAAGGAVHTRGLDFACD
Description: SPR binding to CD8α-Fc. To be noted: folded synthetic peptide; Biacore S200, 25°C, HBS-EP w. 5% DMSO, single-cycle kinetics; kinetic fitting (values not marked *); N.B. = no binding. How it is done:
(§3) Peptide synthesis was done by CSBio (Menlo Park, CA). The linear peptides were synthesized as free N- and C- terminus. For the small-scale in vitro folding test, linear peptides were dissolved in 100% DMSO as 10 mg/ml stock, then 1/20 diluted into folding buffers. Five different buffer conditions were tested: [1] 0.1 M NH4HCO3 pH 9.0, 2 mM reduced glutathione, 0.5 mM oxidized glutathione, and 9% DMSO; [2] 0.1 M NH4HCO3 pH 8.0, 1 mM reduced glutathione, and 55% DMSO; [3] dI-water w. 5% DMSO; [4] 1X PBS pH 7.4 w. 10% DMSO; and [5] 1X PBS pH 7.4 w. 50% DMSO. Refolding was promoted by incubation at R.T. with gentle rotation and monitored by LC-MS for disulfide bond formation. […] Therefore, buffer condition was used as a universal refolding buffer for all HCP peptides. After refolding, peptides with three disulfide bonds were purified by HPLC according to standard procedure and subjected to SPR measurements.
(§4) All binding experiments were performed using a Biacore S200 instrument (GE Healthcare) at 25°C at a flow rate of 30 μl/min in HBS-EP buffer (Cytiva, #BR100188) w. 5% DMSO. The kinetics and affinity measurements were carried out using single-cycle kinetics (SCK) and referenced by subtracting the signal from the blank flow cell. […]
For orientation: Surface plasmon resonance follows binding to a sensor surface in real time, without labels.

The next experiment deals with CD28. Put plainly: phage spot ELISA on CD28. The format is binding.
Text: as §2, §1

Another experiment has as its target CD28-Fc (Homo sapiens, UniProt P10747). Put plainly: SPR binding to CD28-Fc. Also noted: purchased R&D 342-CD-200. The settings on record: folded synthetic peptide; Biacore S200, 25°C, HBS-EP w. 5% DMSO, single-cycle kinetics; kinetic fitting (values not marked *); N.B. = no binding. How it is done:
as §3, §4

Another experiment concerns the target T3, Fz7CRD-Fc (Homo sapiens, UniProt O75084).
T3 construct: Fz7CRD-Fc (R&D, #6178-FZ-50); purchased R&D 6178-FZ-50
Put plainly: SPR binding to Fz7CRD-Fc. The settings on record: folded synthetic peptide; Biacore S200, 25°C, HBS-EP w. 5% DMSO, single-cycle kinetics; kinetic fitting (values not marked *); N.B. = no binding.

The target in the next experiment is T4, RSP02-Fc (UniProt Q6UXX9 22-243).
T4 construct: bought as Fc fusion; captured on a Protein A sensor chip by its Fc; source: bought: Biolegend, #786206
T4 sequence (Q6UXX9 22-243): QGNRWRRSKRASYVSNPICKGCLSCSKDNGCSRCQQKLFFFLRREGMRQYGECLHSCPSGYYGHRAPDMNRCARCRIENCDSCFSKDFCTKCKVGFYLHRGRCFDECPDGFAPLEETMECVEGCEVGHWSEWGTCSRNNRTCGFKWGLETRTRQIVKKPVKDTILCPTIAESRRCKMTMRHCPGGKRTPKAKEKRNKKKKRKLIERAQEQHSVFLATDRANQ
Put plainly: SPR; Biacore S200, Fc-fusion target on Sensor Chip Protein A, peptide flowed, single-cycle kinetics, three-fold dilution series from approximately 100 μM, 25°C, 30 μl/min, HBS-EP with 5% DMSO; 1:1 binding (kinetic) model, or no binding seen. To be noted: both partners purified.

Experiment [2] has as its target human full-length HtrA1 (human, UniProt Q92743 23-480). Description: cell-based or functional assay.
The target of another experiment is T5, HtrA1^PD-S/A (human, UniProt Q92743 161-379, S328A).
T5 construct: serine protease HtrA1, D161-K379 with S328A; source: E. coli, produced in-house (Genentech)
T5 sequence (Q92743 161-379 S328A): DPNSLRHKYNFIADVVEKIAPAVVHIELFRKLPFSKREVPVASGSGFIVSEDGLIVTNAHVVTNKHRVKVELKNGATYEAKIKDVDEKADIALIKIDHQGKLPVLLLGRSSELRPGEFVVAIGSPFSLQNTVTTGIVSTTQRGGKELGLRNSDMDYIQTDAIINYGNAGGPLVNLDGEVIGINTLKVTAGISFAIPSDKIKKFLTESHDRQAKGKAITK
Put plainly: SPR; Biacore S200, HtrA1^PD-S/A on Series S Sensor Chip SA, peptide flowed, 25°C, 30 μl/min, HBS-EP with 5% DMSO; fit model not told for these values. To be noted: both partners purified.

The target in a further experiment is VEGF_(8-109) (UniProt P15692). Put plainly: SPR; Biacore S200, target on Series S Sensor Chip SA, peptide flowed, single-cycle kinetics, three-fold dilution series from approximately 100 μM, 25°C, 30 μl/min, HBS-EP with 5% DMSO; steady-state equilibrium model.
Where [3] appears, read: phage spot ELISA of the clone, positive hit: signal > 0.3 and signal/noise > 2.
Setting [4] is: phage spot ELISA signal/noise ratio.

Chain of CD28-Fc (P10747 19-152 limits assumed): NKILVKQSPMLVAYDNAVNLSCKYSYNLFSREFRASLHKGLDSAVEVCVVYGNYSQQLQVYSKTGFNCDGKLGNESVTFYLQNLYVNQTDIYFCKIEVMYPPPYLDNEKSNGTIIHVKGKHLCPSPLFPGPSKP
T1 sequence (Q92743 23-480): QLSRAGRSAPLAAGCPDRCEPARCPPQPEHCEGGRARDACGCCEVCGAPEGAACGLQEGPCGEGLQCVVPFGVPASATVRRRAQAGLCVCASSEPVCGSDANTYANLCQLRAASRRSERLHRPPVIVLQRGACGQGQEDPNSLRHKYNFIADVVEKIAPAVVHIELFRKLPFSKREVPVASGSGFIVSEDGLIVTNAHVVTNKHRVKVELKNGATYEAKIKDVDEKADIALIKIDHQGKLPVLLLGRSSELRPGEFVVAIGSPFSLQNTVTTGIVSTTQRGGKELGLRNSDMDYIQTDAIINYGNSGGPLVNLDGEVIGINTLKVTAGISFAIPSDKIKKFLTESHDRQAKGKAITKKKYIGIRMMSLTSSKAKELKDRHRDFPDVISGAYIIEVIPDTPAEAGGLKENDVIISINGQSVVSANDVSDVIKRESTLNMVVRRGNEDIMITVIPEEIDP
Chain of human full-length HtrA1 (human, UniProt Q92743 23-480) (Q92743 23-480): as above

For `CC[C@H](C)[C@@H]1NC(=O)[C@H]([C@@H](C)O)NC(=O)[C@@H]2CSSC[C@H](NC(=O)[C@H](CCC(=O)O)NC(=O)[C@H](C)NC(=O)[C@H](CO)NC(=O)[C@H](CO)NC(=O)[C@H]([C@@H](C)O)NC(=O)[C@H](CC(C)C)NC(=O)[C@H](Cc3ccccc3)NC(=O)[C@H](Cc3c[nH]cn3)NC(=O)[C@H](Cc3c[nH]c4ccccc34)NC(=O)CNC(=O)[C@H](CCCNC(=N)N)NC(=O)[C@H](CC(C)C)NC1=O)C(=O)N[C@@H](CCC(=O)O)C(=O)N[C@@H](CCCNC(=N)N)C(=O)N[C@@H](CC(C)C)C(=O)N[C@H]1CSSC[C@H](NC(=O)[C@H]([C@@H](C)O)NC(=O)[C@H](CCCNC(=N)N)NC(=O)[C@H](CC(C)C)NC(=O)CNC(=O)[C@H](CC(C)C)NC(=O)[C@H](CCCNC(=N)N)NC(=O)[C@H](CC(=O)O)NC1=O)C(=O)N[C@@H](CCCNC(=N)N)C(=O)N[C@@H](C(C)C)C(=O)N[C@@H](Cc1c[nH]cn1)C(=O)N[C@H](C(=O)NCC(=O)O)CSSC[C@H](NC(=O)[C@@H]1CCCN1)C(=O)N[C@@H](CCC(=O)O)C(=O)N2` [5ji4_A7] (H-PCECTILRGWHFLTSSAECERLCDRLGLRTCRVHCG-OH; disulfide 2-35, 4-19, 23-31), in the experiment with HtrA1, the ELISA s/n came out at 5.8 and the ELISA signal is given as 3.36. Moreover, at human full-length HtrA1 [1] (maximal inhibition in the concentration-response), the “inhibition of HtrA1 activity” value is on record as “complete inhibition”. Turning to “P C D C DVNGETYTVSSSEE C EPL C LNWLSSL C RVH C G (bicyclic or more) [5ji4-CD8-16, 5JI4 library hit for CD8α, synthesized and folded in vitro]”, the ELISA signal in the experiment with CD8α (setting [3]) worked out at 3.43. Also, in the experiment on CD8α (setting [4]), the ELISA s/n came to 37.34. In addition, the “SPR Kd” value on CD8α-Fc is on record as “N.B”. “P C E C DVNGETYTVSSSEG C ERL C SWDQGKW C RVH C G (bicyclic or more) [5ji4-CD28-7, 5JI4 library hit for CD28, synthesized and folded in vitro]” displayed an ELISA signal in the experiment with CD28 (setting [3]) of 0.25. In addition, the ELISA s/n in the experiment with CD28 (setting [4]) amounted to 3.48. In addition, the “SPR Kd” value on CD28-Fc is given as “N.B”. With “P C E C EDTTFFIIFNSSEE C ERL C RKLGVTN C RVH C G (bicyclic or more) [5ji4-CD28-4, 5JI4 library hit for CD28, synthesized and folded in vitro]”, the “SPR Kd” value on CD28-Fc is given as “N.B”. As to “P C E C LVTPYKDDYKSSEE C ERL C RKLGVTN C RVH C G (bicyclic or more) [5ji4-CD8-8, 5JI4 library hit for CD8α, synthesized and folded in vitro]”, the “SPR Kd” value at CD8α-Fc was “N.B”. For “P C E C PIRPYGVPVKSSEE C ERL C MNDWATT C RVH C G (bicyclic or more) [5ji4-CRD7-5, 5JI4 library hit for CRD7, synthesized and folded in vitro]”, on Fz7CRD-Fc, the “SPR Kd” value was “N.B”. Regarding “PCECDVNGETYTVSSSEECERLCRKLGVTNCRVHCG (also: bicyclic or more (positions not given here)) [5ji4, reference compound]”, in the experiment with HtrA1, the ELISA s/n is listed as 1.4 and the ELISA signal was found to be 0.83. Further, at human full-length HtrA1 [1] (1 nM HtrA1, 5 μM H2-OPT substrate, 0.1% DMSO, 15 min pre-incubation, 37°C, pH 8.0, 4 parameter fit), the IC50 result was “not inhibitory”.

B1: 5ji4-RSP-1 (peptide)
chain: PCECDVNGETYTVSSSEECEPLCWMYNEHFCRVHCG
notes: hit from the 5JI4 scaffold phage libraries; free N- and C-termini; three disulfide bonds; source: synthetic peptide (CSBio), folded in vitro, HPLC purified
Regarding B1, the affinity with RSP02-Fc, expressed as Kd, was 22 ± 17 µM. On to PCECTILRGWHFLTSSAECERLCRKLGVTNCRVHCG, for which the “inhibition of HtrA1 enzyme activity (cleavage of the fluorescence-quenched substrate H2-OPT), IC50” value with human full-length HtrA1 [2] came out at 38 µM.

B2: 5ji4-A7 (peptide)
chain: H-PCECTILRGWHFLTSSAECERLCRKLGVTNCRVHCG-OH
modifications: disulfide (positions not given here); also: three disulfide bonds, pairing not given here
B2 showed a Kd in the experiment with HtrA1^PD-S/A of 2.72 µM. As to PCECFMYDILVGLASSEECKRLCWGFGQSDCRVHCG [5ji4-VEGF-5], the Kd in the experiment with VEGF_(8-109) turned out to be 86 µM.
